Here are results for 41 compounds from paper PMC4010551, “Targeting Staphylococcus aureus Quorum Sensing with Nonpeptidic Small Molecule Inhibitors” (Journal of Medicinal Chemistry, 2014).

One data set relates to Staphylococcus aureus. The data set can be described thus: Antibacterial activity (MIC in MH broth). The format is cell-based. Particulars: for MIC: Staphylococcus aureus; for inhibition of bacterial growth (result in words): at 100 μM.
The next data set has as its system AgrC-1. The data set is classed as cell-based, Staphylococcus aureus. Particulars: for competition with AIP-1 for cognate AgrC: blaZ-based agrP3 reporter.
The target in a further data set is S. aureus membranes. More on the design: species or system Staphylococcus aureus. The following applies: read-out: Kd (membrane binding).
The test system of another data set is agr. In words: microbe, parasite or virus in culture. The following applies: for IC50: Staphylococcus aureus, read-out: agr IC50; for difference between MIC and agr IC50: MIC relative to agr IC50; for effect of double bond in acyl chain on activity: S18 cf. 15, S19 cf. 16. The format is cell-based, Staphylococcus aureus.
Another data set concerns P. aeruginosa. Further details: method as in PMID 21502732. Particulars: cited from earlier work.
The next data set deals with C. difficile. More on the design: method as in PMID 19917748. Particulars: cited from earlier work.
In a further data set the test system is S. aureus USA300. The format is cell-based, Staphylococcus aureus. Particulars: 4 at up to 100 μM.
The test system of data set [1] is adherence of S. aureus to human nasal squamous cells. The format is cell-based, Staphylococcus aureus.
A further data set deals with S. aureus strain Newman. The following applies: mouse, in vivo.
Details of data set [2]: method as in PMID 15623555, PMID 22178671. The following applies: cited from earlier work.

Molecules are shown by their SMILES. Converted amounts (≈) assume the structure as drawn. “Also recorded” adds a separate entry of the source. Where two headings read alike, the source gives them in different places.

A word on the MIC: it is the smallest concentration in the dilution series that meets the test's criterion for growth inhibition. The Kd is the equilibrium constant for the complex coming apart. Usually IC50 stands for the midpoint of a concentration-inhibition curve.

`CCCCCCCCCC(=O)CC(=O)N[C@H]1CCOC1=O` [Compound 1, N-(3-oxododecanoyl)-L-homoserine lactone]: the minimum inhibitory concentration (MIC) with Staphylococcus aureus (S. aureus, MH broth, Table 1, read-out: MIC) was 100 µM (≈ 29.7 µg/mL). The “competition with AIP-1 for cognate AgrC” value in the data set on AgrC-1 is on record as “do not compete”. At S. aureus membranes, the dissociation constant Kd worked out at 270 µM.
`CCCCCCCCCC(=O)CC(=O)N[C@@H]1CCOC1=O` [Compound 2]: in the data set on agr (D-isomer 2 versus 1), the “fold less active in agr inhibition than L-isomer 1” value is “approximately 2 fold”.
On to `CCC/C(O)=C1/C(=O)N[C@@H](CCO)C1=O` [Compound 3], for which, in the data set with Staphylococcus aureus, the MIC is over 100 µM and the “inhibition of bacterial growth (result in words)” value was “did not inhibit growth”. In addition, in the data set on agr, the IC50 is over 100 µM. Moreover, the “killing of P. aeruginosa” value in the data set with P. aeruginosa is recorded as “kill P. aeruginosa”. Moreover, the “killing of C. difficile” value in the data set with C. difficile was “not C. difficile”.
On to `CCCCCCC/C(O)=C1/C(=O)N[C@@H](CCO)C1=O` [Compound 4], for which, in the data set with Staphylococcus aureus, the MIC was over 100 µM and the “inhibition of bacterial growth (result in words)” value is “did not inhibit growth”. Moreover, the “staphylococcal growth” value with S. aureus USA300 is “without affecting staphylococcal growth; also recorded: without inhibiting the growth”.
For `CCCCCCCCC/C(O)=C1/C(=O)N[C@@H](CCO)C1=O` [Compound 5, (S)-3-Decanoyl-5-(2-hydroxyethyl)tetramic Acid], the “competition with AIP-1 for cognate AgrC” value in the data set with AgrC-1 is “do not compete”. The “decrease of maximum level of activation by AIP-1” value with AgrC-1 (increasing concentrations of 5 from 0 to 100 μM) is given as “over 10 fold”. At S. aureus membranes, the Kd is 222 µM. The “attachment of S. aureus to human squamous cells” value in [1] is “substantially reduced attachment”. Also, in the data set with S. aureus strain Newman, the “activity in murine infection model” value was “inactive”. For the same compound, the “ferric ion chelator (result in words)” value in data set [2] was “ferric ion chelators”.
Consider `CCCCCCCCCC/C(O)=C1/C(=O)N[C@@H](CCO)C1=O` [Compound 6], for which, in the data set on agr, the “difference between MIC and agr IC50” value was found to be 5 fold.
Consider `CCCCCCCCCCC/C(O)=C1/C(=O)N[C@@H](CCO)C1=O` [Compound 7, (S)-3-Dodecanoyl-5-(2-hydroxyethyl)tetramic Acid], for which the Kd at S. aureus membranes is 23 µM.
In the case of `CCCCCCCCCCCCC/C(O)=C1/C(=O)N[C@@H](CCO)C1=O` [Compound 8], the “fold lower MIC” value in the data set on Staphylococcus aureus (versus 5 (MIC 100 μM)) was 8 fold. Moreover, the “difference between MIC and agr IC50” value with agr was “little different”. Moreover, on S. aureus membranes, the Kd came out at 2 µM.
In turn, `CCCCCCCCC/C(O)=C1/C(=O)N[C@H](CCO)C1=O` [Compound 9] gave a minimal inhibitory concentration (MIC) in the data set on Staphylococcus aureus of over 100 µM. In the data set with agr ((R)-9 versus (S)-5), the “fold improvement of agr inhibitory activity” value worked out at 1.5 fold.
`O=C1N[C@@H](CCO)C(=O)/C1=C(/O)CCCC1CCCCC1` [Compound 10]: in the data set with Staphylococcus aureus, the MIC is over 100 µM. Besides, the IC50 in the data set on agr is over 100 µM.
`O=C1N[C@@H](CCO)C(=O)/C1=C(/O)Cc1ccc([N+](=O)[O-])cc1` [Compound 11] yielded an MIC in the data set on Staphylococcus aureus of over 100 µM. In addition, the concentration for half-maximal inhibition (IC50) in the data set on agr was over 100 µM.
As to `CCCCCCCCC/C(O)=C1/C(=O)N[C@@H](C)C1=O` [Compound 12, (S)-3-Decanoyl-5-methyltetramic acid], in the data set with agr, the “inhibited agr (result in words)” value is listed as “enhanced agr inhibitory activity”.
Turning to `CCCCCCCCC/C(O)=C1\C(=O)CNC1=O` [Compound 13, 3-decanoyltetramic acid], the “inhibited agr (result in words)” value in the data set on agr is recorded as “enhanced agr inhibitory activity”.
In the case of `CCCCCC(=O)C1=C(O)COC1=O` [Compound 14], in the data set with Staphylococcus aureus, the MIC was over 100 µM.
Consider `CCCCCCCCCC(=O)C1=C(O)COC1=O` [Compound 15], for which the Kd on S. aureus membranes was 258 µM.
`CCCCCCCCCCCC(=O)C1=C(O)COC1=O` [Compound 16, 3-Dodecanoyltetronic Acid]: in the data set on AgrC-1 (16 versus 1 and 5), the “fold more potent in preventing AIP-mediated activation of AgrC” value is “at least 5 fold”. Besides, the “competition with AIP-1 for cognate AgrC” value with AgrC-1 is “do not compete”. Further, on S. aureus membranes, the equilibrium dissociation constant (Kd) was 72 µM.
For `CCCCCCCCCCCCCCCC(=O)C1=C(O)COC1=O` [Compound 18], the MIC in the data set on Staphylococcus aureus is over 100 µM.
Take `CCCCCCCCCC(=O)CC(=O)N[C@@H](CCO)C(=O)O` [Compound S1, N-(3-oxododecanoyl)-L-homoserine]: the MIC with Staphylococcus aureus is over 100 µM. Besides, in the data set on agr, the “inhibited agr (result in words)” value is on record as “neither” and the IC50 was over 100 µM.
Regarding `CCCCCCCCCC(=O)CC(N)=O` [Compound S2, 3-oxododecanamide], in the data set on Staphylococcus aureus, the MIC was over 100 µM. In the data set with agr, the “inhibited agr (result in words)” value is “neither” and the IC50 was over 100 µM.
In the data set with Staphylococcus aureus, `CCCCCCCCCC(=O)CC(=O)Nc1nccs1` [Compound S3] came in with an MIC of over 100 µM. The IC50 with agr was over 100 µM.
`CCCCCCCCCC(=O)CC(=O)N[C@H]1CCSC1=O` [Compound S4] showed an MIC with Staphylococcus aureus of over 100 µM. In the data set on agr, the IC50 is over 100 µM.
On to `CCCCCCCCCC(=O)CC(=O)N[C@H]1CCNC1=O` [Compound S5], for which the MIC in the data set on Staphylococcus aureus is over 100 µM. The IC50 in the data set on agr is over 100 µM.
Take `CCCCCCCCCC(=O)CC(=O)N[C@H]1CCC(=O)NC1=O` [Compound S6]: the minimum inhibitory concentration (MIC) against Staphylococcus aureus was over 100 µM. Also, in the data set on agr, the half-maximal inhibitory concentration (IC50) was over 100 µM.
The compound `CCCCCCCCCC(=O)CC(=O)N[C@H]1CC(=O)NC1=O` [Compound S7] displayed a minimal inhibitory concentration (MIC) with Staphylococcus aureus of over 100 µM. The IC50 in the data set with agr is over 100 µM.
For the compound `CCCCCCCCCCCC(=O)N[C@H]1CCOC1=O` [Compound S8], in the data set with Staphylococcus aureus, the MIC is over 100 µM. In the data set with agr, the IC50 was over 100 µM.
Turning to `CCCCCCCCCC(O)CC(=O)N[C@H]1CCOC1=O` (some centres unmarked) [Compound S9], in the data set on Staphylococcus aureus, the MIC is over 100 µM. Besides, the IC50 in the data set with agr was over 100 µM.
In the data set with Staphylococcus aureus, `CCCCCCCCNC(=O)CC(=O)N[C@H]1CCOC1=O` [Compound S10] displayed a minimal inhibitory concentration (MIC) of over 100 µM. In addition, the 50% inhibitory concentration (IC50) in the data set with agr is over 100 µM.
On to `CCCCCCCCN(C)C(=O)CC(=O)N[C@H]1CCOC1=O` [Compound S11], for which the MIC in the data set on Staphylococcus aureus is over 100 µM. Further, in the data set with agr, the IC50 is over 100 µM.
As to `CCCCCCCCOC(=O)CC(=O)N[C@H]1CCOC1=O` [Compound S12], the MIC in the data set on Staphylococcus aureus was over 100 µM. In addition, the concentration for half-maximal inhibition (IC50) in the data set with agr is over 100 µM.
Take `CCCCCCCCCC(=O)CC(=O)O[C@H]1CCOC1=O` [Compound S13]: in the data set with Staphylococcus aureus (S. aureus, Table S1, read-out: MIC), the MIC was over 100 µM. For the same compound, the IC50 in the data set on agr was over 100 µM.
Turning to `CCCCC/C=C/CCC(=O)CC(=O)N[C@H]1CCOC1=O` [Compound S14], the MIC against Staphylococcus aureus was over 100 µM. The IC50 in the data set on agr was over 100 µM.
`O=C(CCCc1ccccc1)CC(=O)N[C@H]1CCOC1=O` [Compound S15]: the MIC against Staphylococcus aureus is over 100 µM. Besides, the half-maximal inhibitory concentration (IC50) in the data set on agr was over 100 µM.
As to `O=C(CCCC1CCCCC1)CC(=O)N[C@H]1CCOC1=O` [Compound S16], the MIC in the data set on Staphylococcus aureus was over 100 µM. In addition, the IC50 in the data set with agr was over 100 µM.
`CC(C)CCCCCCC(=O)C1=C(O)COC1=O` [Compound S17] came in with an MIC in the data set with Staphylococcus aureus of over 100 µM. Further, the IC50 in the data set on agr was over 100 µM.
`CCCCC/C=C/CCC(=O)C1=C(O)COC1=O` [Compound S18]: the “effect of double bond in acyl chain on activity” value in the data set on agr was “little effect on activity”.
The compound `CCCCCC/C=C\CCCC(=O)C1=C(O)COC1=O` [Compound S19] returned an MIC against Staphylococcus aureus of over 100 µM. The “effect of double bond in acyl chain on activity” value with agr is “almost abolished”.
In the case of `O=C(Cc1ccc([N+](=O)[O-])cc1)C1=C(O)COC1=O` [Compound S20], the MIC with Staphylococcus aureus was over 100 µM. In addition, the IC50 in the data set with agr was over 100 µM.
`O=C(Cc1ccc(Br)cc1)C1=C(O)COC1=O` [Compound S21] displayed a minimum inhibitory concentration (MIC) against Staphylococcus aureus of over 100 µM. In addition, in the data set with agr, the IC50 is over 100 µM.
In the data set with Staphylococcus aureus, `O=C(COc1ccc(Br)cc1)C1=C(O)COC1=O` [Compound S22] showed a minimum inhibitory concentration (MIC) of over 100 µM. For the same compound, the IC50 in the data set with agr is over 100 µM.
In the data set with Staphylococcus aureus, `CCCC(=O)CC(=O)C1=C(O)COC1=O` [Compound S23] showed an MIC of over 100 µM. Further, the IC50 in the data set with agr was over 100 µM.
In the data set with Staphylococcus aureus, `CCCCCCCCCC(=O)CC(=O)C1=C(O)COC1=O` [Compound S24] gave an MIC of over 100 µM. In the data set on agr, the IC50 is over 100 µM.
